Assays:
breast cancer cells = assay: Summary statements on growth of breast cancer cells / antiproliferative activity; format: cell-based; details: for modulate the growth of breast cancer cells and/or compete for binding to the G-rich oligonucleotide binding protein (EMSA): and/or statement, FIGS. 6 and 7; for antiproliferative activity: cells not given
Excerpt: (§1) By G-rich oligonucleotide (GRO) it is meant that the oligonucleotides consist of 4-100 nucleotides (preferably 10-30 nucleotides) with DNA, RNA, 2′-O-methyl, phosphorothioate or other chemically similar backbones. Their sequences contain one or more GGT motifs. The oligonucleotides have antiproliferative activity against cells and bind to GRO binding protein and/or nucleolin.

[1] = system: MDA-MB-231 breast cancer cells; assay: MTT cell growth assay, MDA-MB-231 cells; format: cell-based, human; details: for antiproliferative activity, MDA-MB-231: single 10 uM dose, FIG. 7A
Experimental: Cells were plated at low density ([…] cells per well, depending on cell line) in the appropriate serum-supplemented medium in 96-well plates (one plate per MTT assay time point) and grown under standard conditions of cell culture. The following day (day 1) oligonucleotide, or water as control, was added to the culture medium to give a final concentration of 15 uM. Further oligonucleotide, equivalent to half the initial dose, was added to the culture medium on days two, three and four. Cells were assayed using the MTT assay (Morgan (1998) Methods. Mol. Biol. 79, 179-183) on days one, three, five, seven and nine after plating. The culture medium was not changed throughout the duration of the experiment (which was the time required for untreated cells to grow to confluence). Experiments were performed in triplicate and bars represent the standard error of the data. For the experiment shown in FIG. 7A, MDA-MB-231 breast cancer cells (5×10^2 cells per well) were plated in a 96-well plate. After twenty-four hours, a single dose of oligonucleotide, or equal volume of PBS as a control, was added to the culture medium to a final concentration of 10 uM. Viable cells were assessed seven days after plating using the MTT assay. For the experiment using 3′-unmodified oligonucleotides (FIG. 7D), serum-supplemented medium was replaced by serum-free medium containing oligonucleotide (or serum-free medium alone in control wells). After incubation at 37° C. for four hours, fetal calf serum (Life Technologies, Inc.) was added to the medium to give 10% v/v.

[2] = biological target: T1, TEL-binding protein (GRO-binding protein/nucleolin, MDA-MB-231 nuclear extracts) (Homo sapiens, UniProt P19338); assay: Competitive EMSA, labeled TEL and MDA-MB-231 nuclear extracts; details: for competition with TEL for binding to the nuclear protein: unlabeled competitor, 10-fold molar excess, FIG. 7B
T1 construct: Nuclear and cytoplasmic extracts from MDA-MB-231 cells were prepared using the protocol described in F. M. Ausubel et al; endogenous in cells; host or cells: MDA-MB-231 nuclear extract, prepared in house

[3] = biological target: T2, G-rich oligonucleotide binding protein / nucleolin (Homo sapiens, UniProt P19338); assay: Protein binding, summary statements (EMSA); details: summary statement
T2 construct: endogenous in cells; MDA-MB-231)
Excerpt: as §1
Additionally, the present invention provides a method for selecting oligonucleotides that bind to nucleolin. The method utilizes an electrophoretic mobility shift assay (EMSA), as described below, to screen for oligonucleotides that bind strongly to nucleolin and which, therefore, would be expected, according to the present invention, to have anti-proliferative activity. Oligonucleotides to be screened as potential antiproliferative agents are labeled and then incubated with nuclear extracts in the absence or presence of unlabeled competitor oligonucleotide and are allowed to react. The reaction mixtures are then electrophoresed and mobility shifts and/or bond intensity can be used to identify those oligonucleotides which have bound to the specific protein.
Alternatively, unlabeled compounds to be screened are incubated with nuclear extracts in the presence of labeled oligonucleotide (for example 5′-TTAGGGTTAGGGTTAGGG TTAGGG) (SEQ ID NO: 20) and binding is assessed by a decrease in the intensity of the shifted band, as in FIG. 6B.

T2 sequence (P19338 whole entry): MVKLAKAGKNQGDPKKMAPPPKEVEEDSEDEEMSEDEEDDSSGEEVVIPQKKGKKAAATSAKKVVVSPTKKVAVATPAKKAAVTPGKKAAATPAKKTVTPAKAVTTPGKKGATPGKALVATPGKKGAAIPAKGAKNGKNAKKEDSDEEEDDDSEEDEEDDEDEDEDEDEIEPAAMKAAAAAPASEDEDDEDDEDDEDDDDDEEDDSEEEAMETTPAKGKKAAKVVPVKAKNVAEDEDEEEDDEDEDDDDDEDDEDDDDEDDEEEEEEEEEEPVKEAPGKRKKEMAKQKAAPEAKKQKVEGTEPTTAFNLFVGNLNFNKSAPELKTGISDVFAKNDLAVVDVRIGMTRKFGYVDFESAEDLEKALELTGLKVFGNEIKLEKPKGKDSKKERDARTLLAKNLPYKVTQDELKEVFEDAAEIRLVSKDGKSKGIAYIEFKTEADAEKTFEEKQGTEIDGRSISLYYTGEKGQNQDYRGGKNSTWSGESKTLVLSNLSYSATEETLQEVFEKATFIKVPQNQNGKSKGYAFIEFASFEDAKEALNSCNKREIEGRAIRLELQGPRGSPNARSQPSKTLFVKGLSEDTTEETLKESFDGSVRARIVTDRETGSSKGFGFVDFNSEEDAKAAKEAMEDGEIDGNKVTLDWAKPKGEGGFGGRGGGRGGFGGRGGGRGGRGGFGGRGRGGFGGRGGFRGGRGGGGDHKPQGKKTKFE
T1 sequence (P19338 whole entry): as above

Substance | modulate the growth of breast cancer cells and/or compete for binding to the G-rich oligonucleotide binding protein (EMSA) (breast cancer cells) | antiproliferative activity (breast cancer cells) | protein binding [3] | antiproliferative activity, MDA-MB-231 [1] | competition with TEL for binding to the nuclear protein [2] | further results
5′-TGGTGGTGGTGGT-3′ (DNA, backbone not given here; further chemistry not fully specified) [GR029-13] | have been shown to modulate the growth of breast cancer cells and/or to compete for binding |  |  |  |  | 
heparin [reference compound] |  |  |  |  |  | growth of MDA-MB-231 cells, heparin ([1]; 20 units/ml (approximately 0.12 mg/ml), FIG. 7C): no effect on cell growth; competition for protein binding in competitive EMSA, heparin ([2]; 0.02 units/ml (approximately 0.12 ug/ml)): No competition
5′-TTTGGTGG TGGTGGTTTTGGTGGTGGTGG-3′ (TTTGGTGGTGGTGGTTTTGGTGGTGGTGG; aptamer; DNA, backbone not given here; further chemistry not fully specified) [GR029-2] | have been shown to modulate the growth of breast cancer cells and/or to compete for binding | demonstrated antiproliferative activity | protein binding |  |  | 
5′-GTTGTTTGGGGTGG-3′ (DNA, backbone not given here; further chemistry not fully specified) [GRO14A] |  |  |  | moderate antiproliferative activity | able to compete | 
5′-TTTGGTGGTGGT GGTGTGGTGGTGGTGG-3′ (TTTGGTGGTGGTGGTGTGGTGGTGGTGG; DNA, backbone not given here; further chemistry not fully specified) [GR028B] |  | demonstrated antiproliferative activity | protein binding |  |  | 
5′-TTTGGTGGTGGTGGTGGTGGTGGTGGTGG-3′ (aptamer; DNA, backbone not given here; further chemistry not fully specified) [GR029-3] | have been shown to modulate the growth of breast cancer cells and/or to compete for binding | demonstrated antiproliferative activity | protein binding |  |  | 
5′-GGTGGTGGTGGTTGT GGTGGTGGTGGTTT-3′ (GGTGGTGGTGGTTGTGGTGGTGGTGGTTT; DNA, backbone not given here; further chemistry not fully specified) [GR029-6] |  | demonstrated antiproliferative activity | protein binding |  |  | 
5′-GGTTGGGGTGGGTGGGGTG GGTGGG-3′ (GGTTGGGGTGGGTGGGGTGGGTGGG; DNA, backbone not given here; further chemistry not fully specified) [GR025A] |  |  |  | moderate antiproliferative activity | able to compete | 
5′-TTTGGTGGTGGTGGTTTGGGTGGTGG TGG-3′ (TTTGGTGGTGGTGGTTTGGGTGGTGGTGG; aptamer; DNA, backbone not given here; further chemistry not fully specified) [GR029-5] | have been shown to modulate the growth of breast cancer cells and/or to compete for binding | demonstrated antiproliferative activity | protein binding |  |  | 
5′-TTTGGTGGTGGTGGTTGTGG TGGTGGTG-3′ (TTTGGTGGTGGTGGTTGTGGTGGTGGTG; DNA, backbone not given here; further chemistry not fully specified) [GR028A] |  |  |  | moderate antiproliferative activity | able to compete | 
